Data published in patent US20180244699A1, “1-HYDROXY-3H-2,1-BENZOXABOROLE DERIVATIVES AND THEIR USE AS MICROBIOCIDES” (Syngenta Participations AG, priority 2015, published 2018).

Legend:
Phytophthora infestans = assay: whole plant or invertebrate; type: in vivo; conditions: in Solanum lycopersicum, foliar, read-out: control of Phytophthora infestans
Gaeumannomyces graminis = Gaeumannomyces graminis / liquid culture (take-all of cereals); type: cell-based; conditions: growth inhibition photometrically 4-5 days after application, compared to untreated control
Experimental: (§1) 6. Gaeumannomyces Graminis/Liquid Culture (Take-all of Cereals) Mycelial fragments of the fungus from cryogenic storage were directly mixed into nutrient broth (PDB potato dextrose broth). After placing a (DMSO) solution of test compound into a microtiter plate (96-well format), the nutrient broth containing the fungal spores is added. The test plates are incubated at 24° C. and the inhibition of growth is determined photometrically 4-5 days after application.

Pythium ultimum = Pythium ultimum / liquid culture (seedling damping off); type: cell-based; conditions: Globisporangium ultimum, growth inhibition photometrically 2-3 days after application, compared to untreated control
Method in brief: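 Fungal mycelia fragments and oospores from fresh liquid culture mixed into potato dextrose broth and added to DMSO solutions of test compound. Incubated at 24° C.; growth inhibition read photometrically 2-3 days after application.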

[1] = tested on: Mycosphaerella arachidis (Cercospora arachidicola); assay: Mycosphaerella arachidis (Cercospora arachidicola) / liquid culture (early leaf spot); type: cell-based; conditions: growth inhibition photometrically 4-5 days after application, compared to untreated control
Experimental: as §1, with “9. Mycosphaerella arachidis (Cercospora arachidicola)/Liquid” for “6. Gaeumannomyces Graminis/Liquid”, “(Early Leaf Spot) Conidia” for “(Take-all of Cereals) Mycelial fragments”, “are” for “were”

[2] = tested on: Mycosphaerella graminicola (Septoria tritici); assay: Mycosphaerella graminicola (Septoria tritici) / liquid culture (Septoria blotch); type: cell-based; conditions: Zymoseptoria tritici, growth inhibition photometrically 4-5 days after application, compared to untreated control
Experimental: as §1, with “18. Mycosphaerella graminicola (Septoria tritici)/Liquid” for “6. Gaeumannomyces Graminis/Liquid”, “(Septoria Blotch) Conidia” for “(Take-all of Cereals) Mycelial fragments”, “are” for “were”

[3] = tested on: Thanatephorus cucumeris (Rhizoctonia solani); assay: Thanatephorus cucumeris (Rhizoctonia solani) / liquid culture (foot rot, damping-off); type: cell-based; conditions: growth inhibition photometrically 3-4 days after application, compared to untreated control
Experimental: 16. Thanatephorus cucumeris (Rhizoctonia solani)/Liquid Culture (Foot Rot, Damping-Off) Mycelia fragments of a newly grown liquid culture of the fungus are directly mixed into nutrient broth (PDB potato dextrose broth). After placing a (DMSO) solution of the test compounds into a microtiter plate (96-well format), the nutrient broth containing the fungal material is added. The test plates are incubated at 24° C. and the inhibition of growth is determined photometrically 3-4 days after application.

[4] = tested on: Glomerella lagenarium (Colletotrichum lagenarium); assay: Glomerella lagenarium (Colletotrichum lagenarium) / liquid culture (anthracnose); type: cell-based; conditions: Colletotrichum orbiculare, growth inhibition photometrically 3-4 days after application, compared to untreated control
Experimental: as §1, with “3. Glomerella lagenarium (Colletotrichum lagenarium)/Liquid” for “6. Gaeumannomyces Graminis/Liquid”, “(Anthracnose) Conidia” for “(Take-all of Cereals) Mycelial fragments”, “are” for “were”, “measured” for “determined”, “3-4” for “4-5”

[5] = tested on: Monographella nivalis (Microdochium nivale); assay: Monographella nivalis (Microdochium nivale) / liquid culture (foot rot cereals); type: cell-based; conditions: growth inhibition photometrically 4-5 days after application, compared to untreated control
Method in brief: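 Conidia from cryogenic storage were mixed into potato dextrose broth and added to wells holding test compound in DMSO. Incubation was at 24° C, with growth inhibition measured photometrically 4-5 days after application.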

Sclerotinia sclerotiorum = Sclerotinia sclerotiorum / liquid culture (cottony rot); type: cell-based; conditions: growth inhibition photometrically 3-4 days after application, compared to untreated control
Experimental: 17. Sclerotinia sclerotiorum/Liquid Culture (Cottony Rot) Mycelia fragments of a newly grown liquid culture of the fungus are directly mixed into nutrient broth (PDB potato dextrose broth). After placing a (DMSO) solution of test compound into a microtiter plate (96-well format) the nutrient broth containing the fungal material is added. The test plates are incubated at 24° C. and the inhibition of growth is determined photometrically 3-4 days after application.

[6] = tested on: Puccinia recondite f. sp. tritici; assay: Puccinia recondite f. sp. tritici / wheat / leaf disc preventative (brown rust); type: in vivo; conditions: foliar, wheat leaf segments, inoculated 1 day after application, compared to untreated control
Experimental: 13. Puccinia recondite f. Sp. Tritici/Wheat/Leaf Disc Preventative (Brown Rust) Wheat leaf segments cv. Kanzler are placed on agar in multiwell plates (24-well format) and sprayed with the formulated test compound diluted in water. The leaf disks are inoculated with a spore suspension of the fungus 1 day after application. The inoculated leaf segments are incubated at 19° C. and 75% rh under a light regime of 12 h light/12 h darkness in a climate cabinet and the activity of a compound is assessed as percent disease control compared to untreated when an appropriate level of disease damage appears in untreated check leaf segments (7-9 days after application).

COC(=O)c1ccc2c(c1OC)B(O)OC2 [Compound 1, methyl 1-hydroxy-7-methoxy-3H-2,1-benzoxaborole-6-carboxylate]
pest or weed control at 200 ppm (Phytophthora infestans): ≥ 80%
inhibition of growth at 20 ppm (Gaeumannomyces graminis): ≥ 80%
inhibition of growth at 20 ppm (Pythium ultimum): ≥ 80%
inhibition of growth at 20 ppm [1]: ≥ 80%
inhibition of growth at 20 ppm [2]: ≥ 80%
inhibition of growth at 20 ppm [3]: ≥ 80%
inhibition of growth at 20 ppm [4]: ≥ 80%
inhibition of growth at 20 ppm [5]: ≥ 80%
inhibition of growth at 20 ppm (Sclerotinia sclerotiorum): ≥ 80%

COC(=O)c1ccc2c(c1O)B(O)OC2 [Compound 2, methyl 1,7-dihydroxy-3H-2,1-benzoxaborole-6-carboxylate]
pest or weed control at 200 ppm (Phytophthora infestans): ≥ 80%
inhibition of growth at 20 ppm (Gaeumannomyces graminis): ≥ 80%
inhibition of growth at 20 ppm (Pythium ultimum): ≥ 80%
inhibition of growth at 20 ppm [1]: ≥ 80%
inhibition of growth at 20 ppm [2]: ≥ 80%
inhibition of growth at 20 ppm [3]: ≥ 80%
inhibition of growth at 20 ppm [4]: ≥ 80%
inhibition of growth at 20 ppm [5]: ≥ 80%
melting point: 146 to 148 °C
inhibition of growth at 20 ppm (Sclerotinia sclerotiorum): ≥ 80%

COC(=O)c1ccc2c(c1Cl)B(O)OC2 [Compound 3, methyl 7-chloro-1-hydroxy-3H-2,1-benzoxaborole-6-carboxylate]
pest or weed control at 200 ppm (Phytophthora infestans): ≥ 80%
inhibition of growth at 20 ppm (Pythium ultimum): ≥ 80%
inhibition of growth at 20 ppm [1]: ≥ 80%
pest or weed control at 200 ppm [6]: ≥ 80%
inhibition of growth at 20 ppm [2]: ≥ 80%
inhibition of growth at 20 ppm [3]: ≥ 80%
inhibition of growth at 20 ppm [4]: ≥ 80%
inhibition of growth at 20 ppm [5]: ≥ 80%
inhibition of growth at 20 ppm (Sclerotinia sclerotiorum): ≥ 80%

COc1c(C(=O)NCc2ccccc2F)ccc2c1B(O)OC2 [Compound 5, N-[(2-fluorophenyl)methyl]-1-hydroxy-7-methoxy-3H-2,1-benzoxaborole-6-carboxamide]
inhibition of growth at 20 ppm (Pythium ultimum): ≥ 80%
pest or weed control at 200 ppm [6]: ≥ 80%

COc1c(C(=O)NCc2ccc(Cl)cc2)ccc2c1B(O)OC2 [Compound 6, N-[(4-chlorophenyl)methyl]-1-hydroxy-7-methoxy-3H-2,1-benzoxaborole-6-carboxamide]
inhibition of growth at 20 ppm (Gaeumannomyces graminis): ≥ 80%
inhibition of growth at 20 ppm (Pythium ultimum): ≥ 80%
pest or weed control at 200 ppm [6]: ≥ 80%
inhibition of growth at 20 ppm [5]: ≥ 80%

CNC(=O)c1ccc2c(c1OC)B(O)OC2 [Compound 8, 1-hydroxy-7-methoxy-N-methyl-3H-2,1-benzoxaborole-6-carboxamide]
inhibition of growth at 20 ppm (Pythium ultimum): ≥ 80%
inhibition of growth at 20 ppm [1]: ≥ 80%
pest or weed control at 200 ppm [6]: ≥ 80%

CCOC(=O)c1ccc2c(c1Cl)B(O)OC2 [Compound 9, ethyl 7-chloro-1-hydroxy-3H-2,1-benzoxaborole-6-carboxylate]
pest or weed control at 200 ppm (Phytophthora infestans): ≥ 80%
inhibition of growth at 20 ppm (Gaeumannomyces graminis): ≥ 80%
inhibition of growth at 20 ppm (Pythium ultimum): ≥ 80%
pest or weed control at 200 ppm [6]: ≥ 80%
inhibition of growth at 20 ppm [2]: ≥ 80%
inhibition of growth at 20 ppm [3]: ≥ 80%
inhibition of growth at 20 ppm [4]: ≥ 80%
inhibition of growth at 20 ppm [5]: ≥ 80%
melting point: 132 to 133 °C

COc1c(C(=O)OCC(F)F)ccc2c1B(O)OC2 [Compound 12, 2,2-difluoroethyl 1-hydroxy-7-methoxy-3H-2,1-benzoxaborole-6-carboxylate]
pest or weed control at 200 ppm (Phytophthora infestans): ≥ 80%
inhibition of growth at 20 ppm (Gaeumannomyces graminis): ≥ 80%
inhibition of growth at 20 ppm (Pythium ultimum): ≥ 80%
inhibition of growth at 20 ppm [2]: ≥ 80%
inhibition of growth at 20 ppm [4]: ≥ 80%
inhibition of growth at 20 ppm [5]: ≥ 80%

COc1c(C(=O)NCCc2ccccc2)ccc2c1B(O)OC2 [Compound 33, 1-hydroxy-7-methoxy-N-phenethyl-3H-2,1-benzoxaborole-6-carboxamide]
pest or weed control at 200 ppm [6]: ≥ 80%
inhibition of growth at 20 ppm [5]: ≥ 80%

COc1c(C(=O)NC(C)C)ccc2c1B(O)OC2 [Compound 34, 1-hydroxy-N-isopropyl-7-methoxy-3H-2,1-benzoxaborole-6-carboxamide]
inhibition of growth at 20 ppm (Pythium ultimum): ≥ 80%
pest or weed control at 200 ppm [6]: ≥ 80%

COc1c(C(=O)Nc2cnoc2)ccc2c1B(O)OC2 [Compound 35, 1-hydroxy-N-isoxazol-4-yl-7-methoxy-3H-2,1-benzoxaborole-6-carboxamide]
inhibition of growth at 20 ppm (Pythium ultimum): ≥ 80%
pest or weed control at 200 ppm [6]: ≥ 80%

COc1c(C(=O)OCn2cccn2)ccc2c1B(O)OC2 [Compound 86, pyrazol-1-ylmethyl 1-hydroxy-7-methoxy-3H-2,1-benzoxaborole-6-carboxylate]
pest or weed control at 200 ppm (Phytophthora infestans): ≥ 80%
inhibition of growth at 20 ppm (Gaeumannomyces graminis): ≥ 80%
inhibition of growth at 20 ppm (Pythium ultimum): ≥ 80%
inhibition of growth at 20 ppm [1]: ≥ 80%
inhibition of growth at 20 ppm [2]: ≥ 80%
inhibition of growth at 20 ppm [3]: ≥ 80%
inhibition of growth at 20 ppm [4]: ≥ 80%
inhibition of growth at 20 ppm [5]: ≥ 80%
inhibition of growth at 20 ppm (Sclerotinia sclerotiorum): ≥ 80%

CCN(CC)C(=O)COC(=O)c1ccc2c(c1OC)B(O)OC2 [Compound 94, [2-(diethylamino)-2-oxo-ethyl] 1-hydroxy-7-methoxy-3H-2,1-benzoxaborole-6-carboxylate]
inhibition of growth at 20 ppm (Gaeumannomyces graminis): ≥ 80%
inhibition of growth at 20 ppm (Pythium ultimum): ≥ 80%
inhibition of growth at 20 ppm [1]: ≥ 80%
inhibition of growth at 20 ppm [2]: ≥ 80%
inhibition of growth at 20 ppm [3]: ≥ 80%
inhibition of growth at 20 ppm [4]: ≥ 80%
inhibition of growth at 20 ppm [5]: ≥ 80%
inhibition of growth at 20 ppm (Sclerotinia sclerotiorum): ≥ 80%

CCC1=NC(C)(COC(=O)c2ccc3c(c2OC)B(O)OC3)CO1 (stereo not shown) [Compound 99, (2-ethyl-4-methyl-5H-oxazol-4-yl)methyl 1-hydroxy-7-methoxy-3H-2,1-benzoxaborole-6-carboxylate]
inhibition of growth at 20 ppm (Gaeumannomyces graminis): ≥ 80%
inhibition of growth at 20 ppm (Pythium ultimum): ≥ 80%
inhibition of growth at 20 ppm [1]: ≥ 80%
inhibition of growth at 20 ppm [2]: ≥ 80%
inhibition of growth at 20 ppm [3]: ≥ 80%
inhibition of growth at 20 ppm [4]: ≥ 80%
inhibition of growth at 20 ppm [5]: ≥ 80%
inhibition of growth at 20 ppm (Sclerotinia sclerotiorum): ≥ 80%

COc1c(C(=O)OCn2nc(C)cc2C)ccc2c1B(O)OC2 [Compound 103, (3,5-dimethylpyrazol-1-yl)methyl 1-hydroxy-7-methoxy-3H-2,1-benzoxaborole-6-carboxylate]
pest or weed control at 200 ppm (Phytophthora infestans): ≥ 80%
inhibition of growth at 20 ppm (Gaeumannomyces graminis): ≥ 80%
inhibition of growth at 20 ppm (Pythium ultimum): ≥ 80%

COc1c(C(=O)OCCOC(C)C)ccc2c1B(O)OC2 [Compound 109, 2-isopropoxyethyl 1-hydroxy-7-methoxy-3H-2,1-benzoxaborole-6-carboxylate]
pest or weed control at 200 ppm (Phytophthora infestans): ≥ 80%
inhibition of growth at 20 ppm (Gaeumannomyces graminis): ≥ 80%
inhibition of growth at 20 ppm (Pythium ultimum): ≥ 80%
inhibition of growth at 20 ppm [5]: ≥ 80%

COc1c(C(=O)O)ccc2c1B(O)OC2 [Compound 131, 1-hydroxy-7-methoxy-3H-2,1-benzoxaborole-6-carboxylic acid]
melting point: 181 to 182.4 °C

COc1c(C(=O)OCC#Cc2ccccc2)ccc2c1B(O)OC2 [Compound 132, 3-phenylprop-2-ynyl 1-hydroxy-7-methoxy-3H-2,1-benzoxaborole-6-carboxylate]
inhibition of growth at 20 ppm (Gaeumannomyces graminis): ≥ 80%
inhibition of growth at 20 ppm (Pythium ultimum): ≥ 80%
pest or weed control at 200 ppm [6]: ≥ 80%
inhibition of growth at 20 ppm [2]: ≥ 80%
inhibition of growth at 20 ppm [4]: ≥ 80%
inhibition of growth at 20 ppm [5]: ≥ 80%
